In ChEMBL document CHEMBL3352063, “Transition state mimetics of the Plasmodium export element are potent inhibitors of Plasmepsin V from P. falciparum and P. vivax” (J Med Chem, 2014):
Where “and” joins values, the source holds several entries; their conditions need not be identical. Equal values may be shown once. Square brackets hold non-standard residues; d marks the D form. Peptide text beside a SMILES is read from it. * marks the point of attachment. Sta = CC(C)C[C@H](N)[C@@H](O)CC(=O)O; Cbz = O=C(OCc1ccccc1)*; NHBn = c1ccc(CN*)cc1

Columns and labels:
Cathepsin D = Cathepsin D (Homo sapiens, UniProt P07339); assay: Inhibition of human cathepsin D assessed as cleavage of wtKAHRP fluorogenic substrate
[1] = molecular target: Plasmepsin V (Plasmodium falciparum (isolate 3D7)) (UniProt Q8I6Z5); assay: Inhibition of plasmepsin V in Plasmodium falciparum trophozoite expressing PfEMP3-GFP infected erythrocyte assessed as PEXEL processing at 20 uM by immunoblotting analysis
Beta-secretase 1 = Beta-secretase 1 (Homo sapiens, UniProt P56817); assay: Inhibition of human BACE1 assessed as cleavage of TRF substrate
Plasmepsin V [2] = molecular target: Plasmepsin V (Plasmodium vivax, UniProt A0A0H4FQ60); assay: Inhibition of Plasmodium vivax plasmepsin V by fluorogenic PEXEL cleavage assay
Plasmepsin V [3] = molecular target: Plasmepsin V (Plasmodium falciparum (isolate 3D7), UniProt Q8I6Z5); assay: Inhibition of Plasmodium falciparum plasmepsin V assessed as cleavage of wtKAHRP fluorogenic substrate
HepG2 = assay: Cytotoxicity against human HepG2 cells assessed as cell death after 48 hrs by Cell Titer-Glo assay; type: cell-based; conditions: HepG2, 48 h
Plasmodium falciparum = assay: Antiplasmodial activity against Plasmodium falciparum 3D7 infected in human O positive erythrocyte after 72 hrs; type: functional, organism-based; conditions: 3D7, 72 h
[4] = molecular target: Plasmepsin V (Plasmodium falciparum (isolate 3D7)) (UniProt Q8I6Z5); assay: Inhibition of Plasmodium falciparum plasmepsin V assessed as cleavage of wtKAHRP fluorogenic substrate at 1 uM
[5] = molecular target: Plasmepsin V (Plasmodium vivax) (UniProt A0A0H4FQ60); assay: Inhibition of Plasmodium vivax plasmepsin V at 1 uM by fluorogenic PEXEL cleavage assay
Chain of Plasmepsin V (Plasmodium vivax) (A0A0H4FQ60 as listed by the source): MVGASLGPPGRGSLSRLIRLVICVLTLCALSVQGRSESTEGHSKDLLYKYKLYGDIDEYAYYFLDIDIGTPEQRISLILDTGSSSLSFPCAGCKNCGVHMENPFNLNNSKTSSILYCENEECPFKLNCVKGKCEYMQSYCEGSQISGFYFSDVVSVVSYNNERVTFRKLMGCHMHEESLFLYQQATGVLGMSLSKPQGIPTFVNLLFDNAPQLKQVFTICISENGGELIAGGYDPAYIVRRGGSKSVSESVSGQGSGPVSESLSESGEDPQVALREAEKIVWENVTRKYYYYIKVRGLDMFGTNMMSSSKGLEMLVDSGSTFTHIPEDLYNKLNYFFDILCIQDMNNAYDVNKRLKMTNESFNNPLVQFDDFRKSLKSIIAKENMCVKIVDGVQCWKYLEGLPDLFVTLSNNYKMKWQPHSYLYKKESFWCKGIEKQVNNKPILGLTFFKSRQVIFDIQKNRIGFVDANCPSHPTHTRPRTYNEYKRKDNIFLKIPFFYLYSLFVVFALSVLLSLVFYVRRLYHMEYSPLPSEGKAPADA

Chain of Plasmepsin V (Plasmodium falciparum (isolate 3D7), UniProt Q8I6Z5) (Q8I6Z5 whole entry): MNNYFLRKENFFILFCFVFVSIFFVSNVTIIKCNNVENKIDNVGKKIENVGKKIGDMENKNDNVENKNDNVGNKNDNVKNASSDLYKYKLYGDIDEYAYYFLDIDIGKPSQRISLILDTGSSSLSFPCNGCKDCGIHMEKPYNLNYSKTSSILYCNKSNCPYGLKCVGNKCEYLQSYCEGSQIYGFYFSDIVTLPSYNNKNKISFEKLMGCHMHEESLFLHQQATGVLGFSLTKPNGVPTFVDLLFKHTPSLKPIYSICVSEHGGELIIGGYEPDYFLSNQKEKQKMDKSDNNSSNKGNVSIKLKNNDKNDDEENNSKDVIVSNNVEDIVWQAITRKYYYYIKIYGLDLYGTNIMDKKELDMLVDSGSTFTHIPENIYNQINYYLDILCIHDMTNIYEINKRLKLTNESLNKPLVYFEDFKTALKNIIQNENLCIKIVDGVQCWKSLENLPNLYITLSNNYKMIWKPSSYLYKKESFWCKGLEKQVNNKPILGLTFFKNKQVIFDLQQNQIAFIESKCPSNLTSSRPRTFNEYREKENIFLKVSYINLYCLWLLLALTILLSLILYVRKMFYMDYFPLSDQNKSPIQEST
Chain of Plasmepsin V (Plasmodium falciparum (isolate 3D7)) (Q8I6Z5 whole entry, looked up): as the sequence (Q8I6Z5 whole entry) above
Chain of Beta-secretase 1 (P56817 whole entry): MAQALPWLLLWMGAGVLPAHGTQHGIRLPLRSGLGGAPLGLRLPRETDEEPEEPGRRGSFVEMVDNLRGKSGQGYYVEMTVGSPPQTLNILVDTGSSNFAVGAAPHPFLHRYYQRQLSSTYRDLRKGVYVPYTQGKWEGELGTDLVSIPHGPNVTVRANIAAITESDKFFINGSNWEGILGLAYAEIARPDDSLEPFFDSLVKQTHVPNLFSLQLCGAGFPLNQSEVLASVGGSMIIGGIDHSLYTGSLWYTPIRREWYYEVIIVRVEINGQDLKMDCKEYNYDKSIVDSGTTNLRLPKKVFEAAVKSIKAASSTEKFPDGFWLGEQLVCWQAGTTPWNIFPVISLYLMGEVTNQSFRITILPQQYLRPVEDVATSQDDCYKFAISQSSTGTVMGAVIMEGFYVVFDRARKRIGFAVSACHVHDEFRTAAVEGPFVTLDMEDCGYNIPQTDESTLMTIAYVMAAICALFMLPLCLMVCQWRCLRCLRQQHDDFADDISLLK
Chain of Cathepsin D (P07339 65-162 limits assumed): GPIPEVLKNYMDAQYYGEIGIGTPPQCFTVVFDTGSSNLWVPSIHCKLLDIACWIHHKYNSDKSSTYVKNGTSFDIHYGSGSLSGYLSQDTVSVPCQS
Chain of Cathepsin D (P07339 169-412 limits assumed): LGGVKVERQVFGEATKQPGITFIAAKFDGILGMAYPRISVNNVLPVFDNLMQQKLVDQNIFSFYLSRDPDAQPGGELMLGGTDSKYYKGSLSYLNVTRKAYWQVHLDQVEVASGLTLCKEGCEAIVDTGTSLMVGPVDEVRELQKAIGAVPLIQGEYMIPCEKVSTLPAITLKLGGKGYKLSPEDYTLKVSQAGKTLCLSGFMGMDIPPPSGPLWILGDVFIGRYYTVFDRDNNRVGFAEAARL
Chain of Plasmepsin V (Plasmodium vivax, UniProt A0A0H4FQ60) (A0A0H4FQ60 whole entry): as the sequence (A0A0H4FQ60 as listed by the source) above

SMILES | IC50 (Cathepsin D) | Activity [1] | IC50 (Beta-secretase 1) | IC50 (Plasmepsin V [2]) | IC50 (Plasmepsin V [3]) | EC50 (Plasmodium falciparum) | inhibition [4] | inhibition [5] | EC50 (HepG2)
CC(C)C[C@H](NC(=O)[C@H](C)NC(=O)[C@H](CCCNC(=N)N)NC(=O)OCc1ccccc1)[C@@H](O)CC(=O)NC1CCCCC1 | > 100 µM | 0.2 OD/mm2 | > 100 µM |  | 0.614 µM | 34.6 µM | 54% and 51% |  | > 50 µM
CC(C)C[C@H](NC(=O)[C@H](C)NC(=O)[C@H](CCCNC(=N)N)NC(=O)COCc1ccccc1)[C@@H](O)CC(=O)NCCc1ccccc1 | > 100 µM | 0.16 OD/mm2 | > 100 µM |  | 0.55 µM | 23 µM | 81% |  | > 50 µM
C[C@H](NC(=O)[C@H](CCCNC(=N)N)NC(=O)OCc1ccccc1)C(=O)N[C@@H](CC1CCCCC1)[C@@H](O)CC(=O)NC1CCCCC1 |  |  |  |  | > 20 µM |  |  | 35% | 
CCN(CC)CCCC(C)Nc1ccnc2cc(Cl)ccc12 (configuration not stated) [CHLOROQUINE] |  |  |  |  |  | 0.003 µM |  |  | 
CC(C)C[C@H](NC(=O)[C@H](C)NC(=O)[C@H](CCCN)NC(=O)OCc1ccccc1)[C@@H](O)CC(=O)NC1CCCCC1 | > 100 µM | 0.18 OD/mm2 | > 100 µM |  | > 20 µM | > 50 µM |  |  | > 50 µM
CC(C)C[C@H](NC(=O)[C@H](C)NC(=O)[C@H](CCCNC(=N)N)NC(=O)OCc1ccccc1)[C@@H](O)CC(=O)N(C)CCc1ccc(Cl)cc1 | > 100 µM |  | > 100 µM |  | 2.01 µM |  | 20% |  | 

Continued by falling IC50 (Plasmepsin V [3]), values first:

IC50 (Cathepsin D) | Activity [1] | IC50 (Beta-secretase 1) | IC50 (Plasmepsin V [2]) | IC50 (Plasmepsin V [3]) | EC50 (Plasmodium falciparum) | inhibition [4] | inhibition [5] | SMILES | EC50 (HepG2)
> 100 µM |  | > 100 µM |  | 0.53 µM |  | 60% |  | CC(C)C[C@H](NC(=O)[C@H](C)NC(=O)[C@H](CCCNC(=N)N)NC(=O)OCc1ccccc1)[C@@H](O)CC(=O)NCc1ccccc1 (Cbz-Arg-Ala-[Sta]-NHBn) | 
> 100 µM | 0.31 OD/mm2 | > 100 µM |  | 0.378 µM | 16.3 µM | 78% |  | CC(C)C[C@H](NC(=O)[C@H](C)NC(=O)[C@H](CCCNC(=N)N)NS(=O)(=O)c1ccccc1)[C@@H](O)CC(=O)NCCc1ccccc1 | > 50 µM
5.1 µM | 0.26 OD/mm2 | > 100 µM |  | 0.077 µM | 8.9 µM |  |  | CC(C)C[C@H](NC(=O)[C@H](CCCNC(=N)N)NC(=O)OCc1ccccc1)C(=O)N[C@@H](CC(C)C)[C@@H](O)CC(=O)NC1CCCCC1 | > 50 µM
0.713 µM | 0.24 OD/mm2 | > 100 µM |  | 0.029 µM | 9.8 µM |  |  | CC(C)C[C@H](NC(=O)[C@@H](NC(=O)[C@H](CCCNC(=N)N)NC(=O)OCc1ccccc1)C(C)C)[C@@H](O)CC(=O)NC1CCCCC1 | > 50 µM
0.447 µM | 0.53 OD/mm2 | > 100 µM |  | 0.026 µM | 6.8 µM |  |  | CC[C@H](C)[C@H](NC(=O)[C@H](CCCNC(=N)N)NC(=O)OCc1ccccc1)C(=O)N[C@@H](CC(C)C)[C@@H](O)CC(=O)NC1CCCCC1 | 
32 µM | 2.76 OD/mm2 | > 100 µM | 0.024 µM | 0.019 µM | 2.5 µM |  |  | CC(C)C[C@H](NC(=O)[C@@H](NC(=O)[C@H](CCCNC(=N)N)NS(=O)(=O)Cc1ccccc1)C(C)C)[C@@H](O)CC(=O)NCCc1ccccc1 | > 50 µM
